Data taken from patent publication US20110020801A1, “Carboxylesterase-1 Polymorphisms and Methods of Use Therefor” (priority 2007, published 2011).

Target: T1, WT CES1 (Homo sapiens, UniProt P23141)
T1 construct: inserting a stop codon after CES1A1 gene to yield the constructs expressing CES1 without V5-His tag; expressed in transfected cells
T1 sequence (P23141 18-567): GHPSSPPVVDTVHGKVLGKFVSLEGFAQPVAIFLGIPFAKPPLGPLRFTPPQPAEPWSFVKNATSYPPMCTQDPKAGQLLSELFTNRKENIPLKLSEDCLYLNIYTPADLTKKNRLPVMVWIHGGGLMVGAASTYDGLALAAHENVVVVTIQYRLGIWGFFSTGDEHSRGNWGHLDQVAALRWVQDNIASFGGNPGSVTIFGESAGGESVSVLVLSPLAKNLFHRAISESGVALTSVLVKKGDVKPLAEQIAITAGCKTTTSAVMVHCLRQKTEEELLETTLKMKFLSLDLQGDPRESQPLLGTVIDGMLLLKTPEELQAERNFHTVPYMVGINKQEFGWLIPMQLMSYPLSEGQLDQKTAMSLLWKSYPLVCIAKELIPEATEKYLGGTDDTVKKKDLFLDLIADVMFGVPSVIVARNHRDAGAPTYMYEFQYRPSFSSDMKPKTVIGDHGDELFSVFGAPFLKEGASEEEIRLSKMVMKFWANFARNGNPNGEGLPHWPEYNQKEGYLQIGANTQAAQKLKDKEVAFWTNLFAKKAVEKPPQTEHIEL
Assay: MPH hydrolysis to ritalinic acid by S9 of cells expressing WT CES1 (HPLC)
Format: biochemical
Conditions: S9 0.5 mg/mL, 37° C., 2 hours, mean ± S.D. (n = 3), listed as d-isomer
Source text: The desired plasmid was designed such that the recombinant CES1 would be expressed in mammalian cells with a V5-His tag to facilitate detection and purification. Additionally, another plasmid was generated by inserting a stop codon after CES1A1 gene to yield the constructs expressing CES1 without V5-His tag. […] Thus, only untagged CES1 and its associated mutants were used in the enzymatic hydrolysis study. Two constructs of CES1 mutations, p.Gly143Glu and p.Asp260fs, were generated using a site-directed mutagenesis assay. All constructs were subjected to DNA sequencing analysis to confirm that the desired plasmids were obtained. The identified CES1A1 plasmids (WT, p.Gly143Glu, and p.Asp260fs) were co-transfected with pOG44 plasmid at a ratio of 1:10 into Flp-In™-293 cells using […] (Invitrogen, Carlsbad, Calif.). Additionally, the self-ligated pcDNA5/FRT/V5-His-TOPO® vector was included as a vector control. Twenty-four hours after transfection, cells were washed with PBS and fresh complete medium (Dulbecco's modified Eagle's medium containing 10% fetal bovine serum) was added. […]
After attaining approximately 95% confluence, cells were rinsed and harvested in PBS containing 10 mM HEPES (pH 7.4). […] The protein concentration was determined using a Pierce BCA assay kit (Rockford, Ill.).
For the study of MPH hydrolysis, the reaction was conducted in 1.5 mL eppendorf tubes with a final S9 concentration of 0.5 mg/mL at a total volume of 100 μL. […] Concentrations of the primary phase I MPH metabolite produced via hydrolysis, ritalinic acid (RA), was determined utilizing an established HPLC method described below.
Thus, following the enzymatic assay, the values determined for spontaneous PNP and RA hydrolysis were subtracted from the total PNP and RA production. […] All collected data were fit to the Michaelis-Menten equation, and kinetic parameters were calculated using nonlinear regression analysis with Graphpad Prism software (Graphpad Software Inc., San Diego, Calif.) […]

COC(=O)[C@H](c1ccccc1)[C@H]1CCCCN1 [d-MPH, methylphenidate]
Vmax: 177.2 pmole/min/mg protein
